{"source": "paper PMC11676896", "about": "“Protective Action of Cannabidiol on Tiamulin Toxicity in Humans—In Vitro Study” (International Journal of Molecular Sciences, 2024)", "origin": "cited, not measured here", "key": {"CYP1A1": {"tested_on": "CYP1A1", "design": "method as in PMID 26187180", "conditions": "cited from earlier work"}, "[1]": {"design": "method as in previous studies", "conditions": "CBD 1.56 and 3.125 µg/mL; ref previous studies; cited from earlier work"}}, "data": [{"compound": "C=C(C)[C@@H]1CCC(C)=C[C@H]1c1c(O)cc(CCCCC)cc1O", "note": "[CBD, cannabidiol]", "values": [{"measurement": "induction of CYP1A1 expression", "setting": "CYP1A1", "result": "strongest inducer of CYP1A1 expression"}, {"measurement": "cell viability with CBD alone", "setting": "[1]", "result": "did not show a decrease in cell viability"}]}]}
